The results in this text go back to PubChem BioAssay AID624409 (The Scripps Research Institute Molecular Screening Center, 2012).

Active and inactive are the calls of the source.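 The calls were made as follows: active = IC50 at or below 10 µM; inactive = IC50 above 10 µM.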

For this test, the target named is Orexin/Hypocretin receptor type 1 (Homo sapiens) (UniProt O43613). In words: HCRTR1 antagonism, orexin A-evoked calcium – fluorescence, Fluo-8, CHO cells, powder samples, late-stage follow-up (AID 624409). To be noted: CHO/OX1R cells, Fluo-8 calcium fluorescence.
Orexin/Hypocretin receptor type 1 (Homo sapiens), sequence (O43613 whole entry, looked up): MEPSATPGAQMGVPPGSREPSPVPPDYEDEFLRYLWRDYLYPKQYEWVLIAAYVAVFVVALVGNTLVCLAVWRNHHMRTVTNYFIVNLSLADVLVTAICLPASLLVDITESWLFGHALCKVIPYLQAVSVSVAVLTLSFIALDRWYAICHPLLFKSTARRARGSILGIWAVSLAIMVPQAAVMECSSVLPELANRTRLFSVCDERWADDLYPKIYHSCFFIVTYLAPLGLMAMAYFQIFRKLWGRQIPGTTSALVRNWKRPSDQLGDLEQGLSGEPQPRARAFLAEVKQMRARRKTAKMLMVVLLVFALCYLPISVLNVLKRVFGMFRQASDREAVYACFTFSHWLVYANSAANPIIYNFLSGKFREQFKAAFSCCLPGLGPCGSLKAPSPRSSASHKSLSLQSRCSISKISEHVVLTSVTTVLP
For `CSc1cccc(NC(=O)C2CCCN2S(=O)(=O)c2ccc(Br)s2)c1` (stereo unspecified), the IC50 is 4.67 µM.

Consider `Cc1c(NS(=O)(=O)c2cccc(C(=O)OCC(=O)N(C)C3CCCCC3)c2)c(=O)n(-c2ccccc2)n1C`, for which the IC50 entry is “inactive”.

Consider `CCc1cc(C(=O)OCC(=O)N2CCC(c3ccccc3)=N2)sc1C`, for which the IC50 result was “inactive”.

For the compound `Cc1ccc(-c2csc3nnc(SCC(=O)Nc4nsc(-c5ccccc5)n4)n23)cc1`, the IC50 result was “inactive”.

Take `COc1cccc(/C=C2/Oc3ccccc3N(CC(=O)NCC3CCCO3)C2=O)c1` (stereo unspecified): the half-inhibitory concentration (IC50) was 3.8 µM.

On to `COc1cc(OC)c(-c2nc3ccccc3s2)cc1OC`, for which the IC50 result was “inactive”.

For `CCSC1=C(C#N)C(c2ccccc2Cl)C(C(=O)c2cccs2)C(O)(C(F)(F)F)N1` (stereo unspecified), the IC50 was 4.97 µM.

Take `Cc1ccccc1NC(=O)C1CCCN1S(=O)(=O)c1ccccc1C(F)(F)F` (stereo unspecified): the IC50 is > 19.9 µM (inactive).

Regarding `CCOC(=O)N1CCN(C(=O)CSc2ccc(-c3ccccc3)nn2)CC1`, the IC50 is > 59.6 µM (inactive).

Consider `Cc1cc(Cl)ccc1OCCCC(=O)NCCN1C(=O)S/C(=C\c2cccnc2)C1=O`, for which the half-maximal inhibitory concentration (IC50) was 1.38 µM.

For `COc1ccc(OC)c(S(=O)(=O)NCC(c2ccco2)N2CCc3ccccc32)c1` (stereo unspecified), the IC50 was 7.12 µM.

Turning to `O=C(CSc1ccc(-c2ccccc2)nn1)c1cccs1`, the half-maximal inhibitory concentration (IC50) is 7.92 µM.

As for `CSc1cccc(N2CC(C(=O)NCCN3C(=O)S/C(=C\c4cccnc4)C3=O)CC2=O)c1` (stereo unspecified), the IC50 is > 19.9 µM (inactive).

With `COCCCNC(=O)CCC(=O)NNc1nc2ccccc2c2nc(-c3ccccc3)nn12`, the IC50 entry is “inactive”.

As to `CC(=C/c1ccccc1)/C=C1/SC(N2CCOCC2)=NC1=O`, the IC50 was 9.14 µM.

Turning to `Cc1cccc(NC(=O)[C@@H]2CCCN2S(=O)(=O)c2ccc(Cl)cc2)c1`, the IC50 is > 19.9 µM (inactive).

For `CCN(CC)c1ccc(NC(=O)Cn2c(C(C)NC(=O)c3ccccc3)nc3ccccc32)cc1` (stereo unspecified), the IC50 is > 59.6 µM (inactive).

As to `CN(N=Cc1cc([N+](=O)[O-])ccc1O)c1ccccc1`, the IC50 was > 59.6 µM (inactive).

For the compound `CCn1c(SCC(=O)Nc2ccc3c(c2)c2ccccc2n3CC)nnc1-c1cnccn1`, the IC50 result was “inactive”.

On to `CCc1cc2c(SCC(=O)N(CC)c3c(N)n(Cc4ccccc4)c(=O)[nH]c3=O)ncnc2s1`, for which the IC50 is > 59.6 µM (inactive).

As for `Cc1cccc(C=NNC(=O)c2cc3c(s2)-c2ccccc2CC3)c1`, the IC50 is 2.67 µM.

Consider `Cc1noc(C)c1COc1ccc(C(=O)OCC(=O)N2CC(=O)Nc3ccccc32)cc1`, for which the IC50 was > 19.9 µM (inactive).

As for `CCOc1ccccc1C(=O)Nc1ccc2nc3n(c(=O)c2c1)CCCCC3`, the IC50 result is “inactive”.

`O=c1cc(CN2CC(O)Cc3ccc4ccccc4c32)nc2sccn12` (stereo unspecified): the IC50 was > 19.9 µM (inactive).

Regarding `Fc1cccc(Nc2nc3ccccc3n3cnnc23)c1`, the IC50 was > 59.6 µM (inactive).

Consider `O=C(CN1C(=O)/C(=C\c2cccc(Br)c2)Oc2ccccc21)NCC1CCCO1` (stereo unspecified), for which the IC50 is 5.01 µM.

Usually IC50 stands for the concentration needed to halve the response being measured.
